Results: PubChem BioAssay AID588680 (Southern Research Specialized Biocontainment Screening …, 2011)
Active and inactive are the calls of the source.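 Rule for the calls: active = inhibition of 30% or more at any tested concentration; inactive = the rest.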

Target: M1-family alanyl aminopeptidase (PfM1AAP), Plasmodium falciparum 3D7
Assay: PfM1AAP enzyme inhibition, dose response, selectivity assay for PfM18AAP inhibitor project, biochemical, QFRET, H-Leu-NHMec substrate (AID 588680)
Settings: recombinant PfM1AAP, H-Leu-NHMec fluorogenic cleavage

SMILES	IC50 [µM]	inhibition (at 100 µM (top of the series))	also measured
O=S1(=O)c2ccccc2-c2cc(-c3nc(-c4ccc(O)c(O)c4)[nH]c3-c3ccccc3)ccc21	39.9	–	–
Oc1ccc(-c2csc(Cc3cc4ccccc4[nH]3)n2)cc1O	19.9	–	–
Cc1nc(NCCc2ccc(O)c(O)c2)c2c3c(sc2n1)CCC3	40	–	–
O=C1c2ccc3c4c(ccc(c24)C(=O)N1O)CC3	76.7	–	–
O=c1cc(CN2CCN(Cc3ccccc3)CC2)c2ccc(O)c(O)c2o1	90.5	–	–
COc1ccc(CC(=O)O)cc1OC	–	inactive	–
COc1ccc(CCC(=O)O)cc1OC	–	inactive	–
Oc1ccc(CNc2c3ccccc3nc3ccccc23)cc1O	–	inactive	–
Nc1cc(C(=O)c2ccccc2)ccc1O	40.3	–	–
Cc1c(-c2ccccc2)[nH]c(-c2ccc(O)c(O)c2)[n+]1O	54.3	–	–
O=C(O)CCCNc1c2ccccc2nc2ccccc12	–	–	inhibition (at 50 µM (top of the series)): inactive
COc1cccc(-c2nc(-c3ccc(OC)c(OC)c3)cs2)c1	–	inactive	–
O=C(O)CCCCNc1c2ccccc2nc2ccccc12	–	–	inhibition (at 50 µM (top of the series)): inactive
COc1ccc(-c2csc(-c3ccccc3)n2)cc1OC	–	inactive	–
COc1ccc(CCNc2c3c(nc4ccccc24)CCCC3)cc1OC	–	inactive	–
COc1ccc(CCNc2c3ccccc3nc3ccccc23)cc1OC	–	inactive	–
COc1ccc(-c2csc(-c3ccccc3OC)n2)cc1OC	–	inactive	–
CN(CCc1ccc(O)c(O)c1)c1ccnc2ccccc12	19.7	–	–
Cc1ccc(-c2nc(-c3ccc(O)c(O)c3)cs2)cc1	37.1	–	–
COc1ccc(CCNc2ccnc3ccccc23)cc1OC	–	inactive	–

SMILES	IC50 [µM]	inhibition (at 100 µM (top of the series))	also measured
Oc1ccc(CCNc2cccc3ccccc23)cc1O	29.9	–	–
O=C(c1ccco1)N1CCN(Cc2cc(=O)c(O)c[nH]2)CC1	–	inactive	–
COc1ccc(CCN2CCN(C)CC2)cc1OC	–	inactive	–
O=C(c1ccco1)N1CCN(Cc2cc(=O)c(O)co2)CC1	–	inactive	–
COc1ccc(CCNc2ccc3ccccc3c2)cc1OC	–	inactive	–
COc1ccc(CCNC2CCN(Cc3ccccc3)CC2)cc1OC	–	inactive	–
O=c1ccn(CCNc2c3ccccc3nc3ccccc23)cc1OCc1ccccc1	–	inactive	–
CCC(C)C(=O)Nc1ccccc1N (stereo not drawn)	–	inactive	–
Oc1ccc(CCN2CCc3ccccc3C2)cc1O	77	–	–
CC(C)(C)C(=O)OCc1nc(-c2ccc(O)c(O)c2)cs1	41.2	–	–
Oc1ccc(CCNC(c2ccccc2)c2ccccc2)cc1O	55.1	–	–
COc1ccc(CCNc2cccc3ccccc23)cc1OC	–	inactive	–
COc1ccc(CCNC2CCN(C)CC2)cc1OC	–	inactive	–
COc1ccc(-c2nc(-c3ccccc3)c(-c3ccccc3)[nH]2)cc1OC	–	inactive	–
O=c1cc(CO)oc(CN2CCCCC2)c1O	–	inactive	–
COc1ccc(CCN(C)c2ccnc3ccccc23)cc1OC	–	inactive	–
CN(CCc1ccc(O)c(O)c1)c1ccncc1	45.2	–	–
COc1ccc(CCN(C)c2c3ccccc3nc3ccccc23)cc1OC	–	inactive	–
Oc1ccc(CCNc2c3c(nc4ccccc24)CCCC3)cc1O	35	–	–
COc1ccc(CCN(C)c2ccncc2)cc1OC	–	inactive	–

SMILES	IC50 [µM]	inhibition (at 100 µM (top of the series))	also measured
COc1ccc(CCN(C)CCc2ccccc2)cc1OC	–	inactive	–
O=c1ccc2cc(O)c(O)cc2o1	48.2	–	–
COc1ccc(CCNc2c3ccccc3nc3ccccc23)cc1	–	inactive	–
Oc1ccc(CCNc2c3ccccc3nc3ccccc23)cc1	–	inactive	–
Cc1c(O)c(=O)ccn1CCNc1c2ccccc2nc2ccccc12	–	inactive	–
CCC(C)c1ccc(N)c(O)c1 (stereo not drawn)	42.2	–	–
O=C1OCCN1CCc1nc(-c2ccc(O)c(O)c2)cs1	37.7	–	–
COc1ccc(CCNc2ccncc2)cc1OC	–	inactive	–
CCC(C)C(=O)Nc1ccccc1O (stereo not drawn)	–	inactive	–
COc1ccc(CNc2c3ccccc3nc3ccccc23)cc1OC	–	inactive	–
COc1cccc(CCNc2c3ccccc3nc3ccccc23)c1	–	inactive	–
Oc1ccc(CCNc2cncc3ccccc23)cc1O	35.7	–	–
NCCNc1c2ccccc2nc2ccccc12	–	inactive	–
COc1ccc(CCCNc2c3ccccc3nc3ccccc23)cc1OC	–	inactive	–
CCOc1cccc(-c2nc(-c3ccc(O)c(O)c3)cs2)c1	40	–	–
COc1ccc(CCN2CCc3ccccc3C2)cc1OC	–	inactive	–
Oc1ccc(CCNc2ccc3ccccc3c2)cc1O	34.6	–	–
Cc1c(OCc2ccccc2)c(=O)ccn1CCNc1c2ccccc2nc2ccccc12	–	inactive	–
